Test results reported in patent US9845297B2, “Antimicrobial compounds and methods of making and using the same” (Melinta Therapeutics, Inc., priority 2009, dated 2017).

What follows are compounds tested on Eschericia coli strain ATCC25922 (assay: standard microdilution assay to determine minimum inhibitory concentrations (MICs)). Settings: Escherichia coli, ATCC25922, Eschericia coli strain ATCC25922, standard microdilution assay; read-out: E. coli ATCC25922 MIC.
Type: cell-based
Procedure, shortened: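 Broth microdilution per CLSI protocols, typically 100 µL final volume, against E. coli ATCC25922. MIC values scored as +/− against a cutoff of 16 micrograms/ml.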

`COc1cc2nc(Nc3nc(=O)c(-c4ccc(CN(CCCN)CCCN)c(F)c4)c[nH]3)[nH]c2cc1OC` [Compound 370] and `Cn1c(Nc2nc(=O)c(-c3ccc(CN(CCCN)CCCN)c(F)c3)c[nH]2)nc2ccccc21` [Compound 428] cannot be ordered by MIC: greater than 16 µg/mL for the first, greater than 16 µg/mL for the second.

`NCCCN(CCCc1cccnc1)Cc1ccc(-c2c[nH]c(NC(=O)Nc3ccccc3OC(F)(F)F)nc2=O)cc1` [Compound 372] and `N#CCCCN(CCCN)Cc1ccc(-c2c[nH]c(NC(=O)Nc3ccccc3OC(F)(F)F)nc2=O)cc1` [Compound 398] cannot be ordered by MIC: greater than 16 µg/mL for the first, greater than 16 µg/mL for the second.

`O=C(Nc1nc(=O)c(-c2ccc(CNCCCc3cccnc3)cc2)c[nH]1)Nc1cc(F)c(F)cc1F` [Compound 373] and `NCCCN(CCCc1cccnc1)Cc1ccc(-c2c[nH]c(NC(=O)Nc3cc(F)c(F)cc3F)nc2=O)cc1` [Compound 399] cannot be ordered by MIC: greater than 16 µg/mL for the first, greater than 16 µg/mL for the second.

Going from `NC(=O)NCCCNCc1ccc(-c2c[nH]c(NC(=O)Nc3ccccc3OC(F)(F)F)nc2=O)cc1` [Compound 374] to `NCCCN(CCCNC(N)=O)Cc1ccc(-c2c[nH]c(NC(=O)Nc3ccccc3OC(F)(F)F)nc2=O)cc1` [Compound 394], the MIC falls from greater than 16 µg/mL to less than 16 µg/mL.

Compared with `NCCCNCc1ccc(-c2c[nH]c(Nc3ccccc3C(F)(F)F)nc2=O)cc1C(F)(F)F` [Compound 376], `NCCCNCc1ccc(-c2c[nH]c(Nc3ccc(C(F)(F)F)cc3)nc2=O)cc1C(F)(F)F` [Compound 382] is lower in MIC: greater than 16 µg/mL for the first, less than 16 µg/mL for the second.

`N[C@H]1CCN(CCc2c[nH]c(NC(=O)Nc3ccccc3OC(F)(F)F)nc2=O)C1` [Compound 381] and `NCCCN[C@@H]1CCN(CCc2c[nH]c(NC(=O)Nc3ccccc3OC(F)(F)F)nc2=O)C1` [Compound 384] cannot be ordered by MIC: greater than 16 µg/mL for the first, greater than 16 µg/mL for the second.

`NCCCN(CCCN)Cc1ccc(-c2c[nH]c(Nc3nc4ccccc4s3)nc2=O)cc1F` [Compound 383] and `NCCCN(CCCN)Cc1ccc(-c2c[nH]c(Nc3nc4ccc(C(F)(F)F)cc4o3)nc2=O)cc1F` [Compound 404] cannot be ordered by MIC: greater than 16 µg/mL for the first, greater than 16 µg/mL for the second.

`NCCCN[C@@H]1CCN(CCc2c[nH]c(NC(=O)Nc3cccc(Cl)c3Cl)nc2=O)C1` [Compound 385] and `NCCCN1CCN(C(=O)Cc2c[nH]c(NC(=O)Nc3cccc(Cl)c3Cl)nc2=O)CC1` [Compound 408] cannot be ordered by MIC: greater than 16 µg/mL for the first, greater than 16 µg/mL for the second.

`N#Cc1ccc(NC(=O)Nc2nc(=O)c(-c3ccc(CNCCCN)c(F)c3)c[nH]2)cc1` [Compound 386] and `NCCCNCc1ccc(-c2c[nH]c(NC(=O)Nc3ccc(N4C(=O)C=CC4=O)cc3)nc2=O)cc1F` [Compound 417] cannot be ordered by MIC: greater than 16 µg/mL for the first, greater than 16 µg/mL for the second.

`NCCCNCc1ccc(-c2c[nH]c(NC(=O)Nc3cc(Cl)cc(Cl)c3)nc2=O)cc1F` [Compound 387] and `NCCCNCc1ccc(-c2c[nH]c(NC(=O)Nc3c(Cl)cc(Cl)cc3Cl)nc2=O)cc1F` [Compound 461] cannot be ordered by MIC: greater than 16 µg/mL for the first, greater than 16 µg/mL for the second.

First: NCCCNCc1ccc(-c2c[nH]c(NC(=O)Nc3cc(Cl)c(Cl)cc3Cl)nc2=O)cc1F [Compound 388]
Second: NCCCNCc1ccc(-c2c[nH]c(NC(=O)Nc3ccc(Cl)cc3F)nc2=O)cc1F [Compound 436]
The MIC of the first is higher: greater than 16 µg/mL for the first, less than 16 µg/mL for the second.

`NCCCNCc1ccc(-c2c[nH]c(NC(=O)Nc3ccc(F)c([N+](=O)[O-])c3)nc2=O)cc1F` [Compound 389] and `NCCCNCc1ccc(-c2c[nH]c(NC(=O)Nc3ccc(F)c(C(F)(F)F)c3)nc2=O)cc1F` [Compound 413] cannot be ordered by MIC: greater than 16 µg/mL for the first, greater than 16 µg/mL for the second.

`NC(=O)NCCCNCc1ccc(-c2c[nH]c(NC(=O)Nc3cc(F)c(F)cc3F)nc2=O)cc1` [Compound 395] and `NCCCN(CCCNC(N)=O)Cc1ccc(-c2c[nH]c(NC(=O)Nc3cc(F)c(F)cc3F)nc2=O)cc1` [Compound 444] cannot be ordered by MIC: greater than 16 µg/mL for the first, greater than 16 µg/mL for the second.

`NCCCN(CCC1CC1)Cc1ccc(-c2c[nH]c(NC(=O)Nc3ccccc3OC(F)(F)F)nc2=O)cc1` [Compound 397] and `O=C(Nc1nc(=O)c(-c2ccc(CNCCC3CC3)cc2)c[nH]1)Nc1ccccc1OC(F)(F)F` [Compound 441] cannot be ordered by MIC: greater than 16 µg/mL for the first, greater than 16 µg/mL for the second.

First: NCCCN(CCC1CC1)Cc1ccc(-c2c[nH]c(NC(=O)Nc3cc(F)c(F)cc3F)nc2=O)cc1 [Compound 401]
Second: N#CCCCN(CCCN)Cc1ccc(-c2c[nH]c(NC(=O)Nc3cc(F)c(F)cc3F)nc2=O)cc1 [Compound 443]
The MIC of the first is lower: less than 16 µg/mL for the first, greater than 16 µg/mL for the second.

`NCCCN(CCCN)Cc1ccc(-c2c[nH]c(Nc3nc4cc(C(F)(F)F)cc(Cl)c4o3)nc2=O)cc1F` [Compound 403] and `CCS(=O)(=O)c1ccc2oc(Nc3nc(=O)c(-c4ccc(CN(CCCN)CCCN)c(F)c4)c[nH]3)nc2c1` [Compound 427] cannot be ordered by MIC: greater than 16 µg/mL for the first, greater than 16 µg/mL for the second.

`NCCCN1CCN(C(=O)Cc2c[nH]c(NC(=O)Nc3ccccc3OC(F)(F)F)nc2=O)CC1` [Compound 405] and `N=C(N)NCCCN1CCN(C(=O)Cc2c[nH]c(NC(=O)Nc3ccccc3OC(F)(F)F)nc2=O)CC1` [Compound 429] cannot be ordered by MIC: greater than 16 µg/mL for the first, greater than 16 µg/mL for the second.

`Cc1[nH]c(NC(=O)Nc2ccccc2OC(F)(F)F)nc(=O)c1CC(=O)N1CCN(CCCN)CC1` [Compound 406] and `NCCCN1CCN(c2c[nH]c(NC(=O)Nc3ccccc3OC(F)(F)F)nc2=O)CC1` [Compound 425] cannot be ordered by MIC: greater than 16 µg/mL for the first, greater than 16 µg/mL for the second.

`NCCCN[C@H]1CCN(C(=O)Cc2c[nH]c(NC(=O)Nc3ccccc3OC(F)(F)F)nc2=O)C1` [Compound 407] and `N[C@@H]1CCN(C(=O)Cc2c[nH]c(NC(=O)Nc3ccccc3OC(F)(F)F)nc2=O)C1` [Compound 410] cannot be ordered by MIC: greater than 16 µg/mL for the first, greater than 16 µg/mL for the second.

`O=C(Nc1nc(=O)c(CC(=O)N2CCNCC2)c[nH]1)Nc1ccccc1OC(F)(F)F` [Compound 409] and `NCCCN1CCC(c2c[nH]c(NC(=O)Nc3ccccc3OC(F)(F)F)nc2=O)CC1` [Compound 455] cannot be ordered by MIC: greater than 16 µg/mL for the first, greater than 16 µg/mL for the second.

`NCCCNCc1ccc(-c2c[nH]c(Nc3nc4ccccc4[nH]3)nc2=O)cc1F` [Compound 412] and `NCCCNCc1ccc(-c2c[nH]c(Nc3nc4cc(F)c(F)cc4[nH]3)nc2=O)cc1F` [Compound 439] cannot be ordered by MIC: less than 16 µg/mL for the first, less than 16 µg/mL for the second.

`CCOc1ccc(NC(=O)Nc2nc(=O)c(-c3ccc(CNCCCN)c(F)c3)c[nH]2)c([N+](=O)[O-])c1` [Compound 414] and `COc1cc([N+](=O)[O-])ccc1NC(=O)Nc1nc(=O)c(-c2ccc(CNCCCN)c(F)c2)c[nH]1` [Compound 415] cannot be ordered by MIC: greater than 16 µg/mL for the first, greater than 16 µg/mL for the second.

`COc1ccc([N+](=O)[O-])cc1NC(=O)Nc1nc(=O)c(-c2ccc(CNCCCN)c(F)c2)c[nH]1` [Compound 416] and `NCCCNCc1ccc(-c2c[nH]c(NC(=O)Nc3cc([N+](=O)[O-])ccc3Cl)nc2=O)cc1F` [Compound 457] cannot be ordered by MIC: greater than 16 µg/mL for the first, greater than 16 µg/mL for the second.

`NCCCNCc1ccc(-c2c[nH]c(NC(=O)Nc3cccc(-n4cccc4)c3)nc2=O)cc1F` [Compound 418] and `Cc1nc(-c2cccc(NC(=O)Nc3nc(=O)c(-c4ccc(CNCCCN)c(F)c4)c[nH]3)c2)cs1` [Compound 424] cannot be ordered by MIC: greater than 16 µg/mL for the first, greater than 16 µg/mL for the second.

Going from `NCCCNCc1ccc(-c2c[nH]c(NC(=O)Nc3ccc(C(F)(F)F)cc3Cl)nc2=O)cc1F` [Compound 419] to `NCCCNCc1ccc(-c2c[nH]c(NC(=O)Nc3ccc(Cl)c(C(F)(F)F)c3)nc2=O)cc1F` [Compound 459], the MIC rises from less than 16 µg/mL to greater than 16 µg/mL.

`NCCCNCc1ccc(-c2c[nH]c(NC(=O)NCCc3ccc(Cl)cc3Cl)nc2=O)cc1F` [Compound 420] and `NCCCNCc1ccc(-c2c[nH]c(NC(=O)NCCc3ccc(Cl)c(Cl)c3)nc2=O)cc1F` [Compound 451] cannot be ordered by MIC: less than 16 µg/mL for the first, less than 16 µg/mL for the second.

`NCCCNCc1ccc(-c2c[nH]c(NC(=O)NCCc3cccc(Cl)c3)nc2=O)cc1F` [Compound 421] and `NCCCNCc1ccc(-c2c[nH]c(NC(=O)NCCc3ccc(Cl)cc3)nc2=O)cc1F` [Compound 423] cannot be ordered by MIC: greater than 16 µg/mL for the first, greater than 16 µg/mL for the second.

`N=C(N)NCCCN1CCN(c2c[nH]c(NC(=O)Nc3ccccc3OC(F)(F)F)nc2=O)CC1` [Compound 422] and `N=C(N)NCCCNC1CCN(c2c[nH]c(NC(=O)Nc3ccccc3OC(F)(F)F)nc2=O)C1` (stereo not shown) [Compound 431] cannot be ordered by MIC: greater than 16 µg/mL for the first, greater than 16 µg/mL for the second.

`NCCCNCc1ccc(-c2c[nH]c(NC(=O)Nc3ccccc3OC(F)(F)F)nc2=O)c(F)c1` [Compound 432] and `NCCCNCc1ccc(-c2c[nH]c(NC(=O)Nc3cccc(Cl)c3Cl)nc2=O)c(F)c1` [Compound 433] cannot be ordered by MIC: less than 16 µg/mL for the first, less than 16 µg/mL for the second.

First: NCCCNCc1ccc(-c2c[nH]c(NC(=O)Nc3cc(F)c(F)cc3F)nc2=O)c(F)c1 [Compound 434]
Second: NCCCNCc1ccc(-c2c[nH]c(Nc3nc4cc(F)c(F)cc4[nH]3)nc2=O)c(F)c1 [Compound 458]
The MIC of the first is higher: greater than 16 µg/mL for the first, less than 16 µg/mL for the second.

`NCCCNCc1ccc(-c2c[nH]c(NC(=O)NCCc3ccc(F)cc3)nc2=O)cc1F` [Compound 435] and `NCCCNCc1ccc(-c2c[nH]c(NC(=O)NCCc3c(Cl)cccc3Cl)nc2=O)cc1F` [Compound 437] cannot be ordered by MIC: greater than 16 µg/mL for the first, greater than 16 µg/mL for the second.

`NCCCNCc1ccc(-c2c[nH]c(Nc3nc4cc(F)c(F)cc4[nH]3)nc2=O)cc1` [Compound 438] and `NCCCNCc1ccc(-c2c[nH]c(Nc3nc4cc(F)c(F)cc4o3)nc2=O)cc1` [Compound 454] cannot be ordered by MIC: less than 16 µg/mL for the first, less than 16 µg/mL for the second.

First: NCCCNCc1ccc(-c2c[nH]c(NC(=O)Nc3cccc4nsnc34)nc2=O)cc1F [Compound 445]
Second: NCCCNCc1ccc(-c2c[nH]c(NC(=O)Nc3cccc(Cl)c3F)nc2=O)cc1F [Compound 450]
The MIC of the first is higher: greater than 16 µg/mL for the first, less than 16 µg/mL for the second.

`Cc1ncc(-c2cccc(NC(=O)Nc3nc(=O)c(-c4ccc(CNCCCN)c(F)c4)c[nH]3)c2)s1` [Compound 446] and `NCCCNCc1ccc(-c2c[nH]c(NC(=O)Nc3ccc(F)c(F)c3F)nc2=O)cc1F` [Compound 462] cannot be ordered by MIC: greater than 16 µg/mL for the first, greater than 16 µg/mL for the second.

`O=C(Nc1nc(=O)c(-c2ccc(CNCCc3c[nH]c(=O)[nH]3)cc2)c[nH]1)Nc1ccccc1OC(F)(F)F` [Compound 448] and `NC(N)NCCCN1CCC(c2c[nH]c(NC(=O)Nc3ccccc3OC(F)(F)F)nc2=O)CC1` [Compound 456] cannot be ordered by MIC: greater than 16 µg/mL for the first, greater than 16 µg/mL for the second.

First: NCCCNCc1ccc(-c2c[nH]c(NC(=O)Nc3c(F)c(F)c(F)c(F)c3F)nc2=O)cc1F [Compound 449]
Second: N=C(N)NCCCN(CCCN)Cc1ccc(-c2c[nH]c(NC(=O)Nc3cc(Cl)cc(Cl)c3)nc2=O)cc1 [Compound 453]
The MIC of the first is higher: greater than 16 µg/mL for the first, less than 16 µg/mL for the second.

`N#Cc1ccc(NC(=O)Nc2nc(=O)c(-c3ccc(CN(CCCN)CCCNC(=N)N)cc3)c[nH]2)cc1` [Compound 452] gave an MIC of less than 16 µg/mL.
